Measured values from PubChem BioAssay (NCI).
Several values for one entry are separate records, joined by “and”; a condition that tells them apart may be missing. Equal entries are not always repeated.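 Assay format: 96-well plates, 48-hour exposure. The concentration for 50% growth inhibition is given as GI50. TGI is the concentration that stops growth completely.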

Columns and labels:
Test in all cases: DTP human tumour cell line panel, 48 h
[1] = system: ACHN renal
[2] = system: EKVX NSCLC
[3] = system: HOP-62 NSCLC
[4] = system: NCI-H23 lung
[5] = system: OVCAR-4 ovarian
[6] = system: SF-539 CNS
[7] = system: SK-MEL-2 melanoma
[8] = system: TK-10 renal
[9] = system: MDA-MB-435
[10] = system: HS 578T breast

SMILES	TGI [1]	TGI [2]	TGI [3]	TGI [4]	TGI [5]	TGI [6]	TGI [7]	TGI [8]	TGI [9]	TGI [10]	GI50 [6]
COc1cc(C2c3cc4c(cc3[C@@H](N(C)c3ccc(N(C)C)cc3)C3COC(=O)C23)OCO4)cc(OC)c1O (stereo partly drawn)	18.8 µM	44.2 µM	> 100 µM	4.92 µM	29.4 µM	0.638 µM	16.9 µM	33.1 µM			
O=C(c1ccco1)N(C(=S)N1CCN(c2ccccn2)CC1)c1ccccc1	> 100 µM		> 100 µM	> 100 µM	> 100 µM	> 100 µM	> 100 µM	> 100 µM			
C=CCn1c(=N)/c(=C(\N)O)s/c1=C1/SC(=S)N(c2ccc(C)cc2)C1=O	> 100 µM			> 100 µM		> 100 µM	> 100 µM	> 100 µM			
C/C(O[Si](C(C)C)(C(C)C)C(C)C)=C(\C)C(=O)N(C)c1ccccc1Cl	> 100 µM	> 100 µM	> 100 µM	> 100 µM	> 100 µM	> 100 µM		> 100 µM	> 100 µM		
O=[N+]([O-])C(C(Cl)=C(Cl)Cl)=C(n1cncn1)n1cncn1	37.5 µM	59.9 µM	> 100 µM	54.2 µM	57 µM	41.2 µM	> 100 µM	> 100 µM	> 71.8 µM	> 64.1 µM	
O=C1/C(=C/c2ccccc2)CCCc2ccccc21	47 µM	37.3 µM	36.3 µM	34.2 µM	32 µM	32.1 µM	29.9 µM	37.5 µM	38.9 µM	40.4 µM	
O=P1(Cc2ccccc2)c2ccccc2-c2ccccc21	52.1 µM	> 73.1 µM	> 52.6 µM	22.1 µM	87.9 µM	39.5 µM	7.49 µM	36 µM	12.3 µM	> 72 µM	
C=C(C)C(=O)OC1C[C@H](COC(C)=O)C2CC=C(CO)C2C2OC(=O)C(=C)[C@H]12 (stereo partly drawn)	> 100 µM	> 100 µM	> 100 µM	> 100 µM		> 100 µM	> 100 µM	> 100 µM	> 100 µM	> 100 µM	
O=C(NC1(C(=O)O)CCCC1)c1ccccc1	> 100 µM	> 100 µM	> 100 µM	> 100 µM		> 100 µM	> 100 µM	> 100 µM	> 100 µM	> 100 µM	
COC(=O)CC(C(C(C)=O)C(=O)OCc1ccccc1)N1C(=O)OC(c2ccccc2)C1c1ccccc1 (stereo not drawn)	> 100 µM	> 100 µM	> 100 µM	> 100 µM		> 100 µM	> 100 µM	> 100 µM			24.1 µM and > 100 µM
O=C1C(Cl)=C(NCCF)C(=O)c2ncccc21	5.22 µM	3.08 µM	4.39 µM	3.51 µM		3.23 µM	4.23 µM	3.65 µM	0.408 µM	4 µM	
C/C(O)=C(\C=NC(=S)c1ccncc1)C(=O)Nc1ccccc1C	> 100 µM	> 100 µM	> 100 µM	> 100 µM	> 100 µM	> 100 µM	> 100 µM	> 100 µM	> 100 µM		
COC(=O)C1(O)C(c2ccccc2)NC2(C)CCCC21 (stereo not drawn)	> 100 µM		> 100 µM	> 100 µM	> 100 µM	> 100 µM	> 100 µM	> 100 µM	> 100 µM	> 100 µM	
O=C(O)c1ccc(Nc2nc3nn(Cc4ccccc4)cc3c(=O)s2)cc1	> 100 µM	> 100 µM	> 100 µM	> 100 µM		> 100 µM	> 100 µM	> 100 µM			
CC(=O)c1c(O)n(-c2ccc(C)cc2)c(=O)c2c(N)n[nH]c12		> 100 µM		> 100 µM	> 100 µM	> 100 µM	> 100 µM	> 100 µM	> 100 µM	> 100 µM	
CC[n+]1c(/C=C/c2ccc(N(CCCl)CCCl)cc2)ccc2cc(I)ccc21	9.37 µM	12 µM	3.55 µM	23.5 µM	2.29 µM	2.4 µM	1.39 µM	9.04 µM			
OC12c3ccccc3C1CCCCCC21OCCCO1 (stereo not drawn)	> 100 µM		> 100 µM	> 100 µM	> 100 µM	> 100 µM	> 100 µM	> 100 µM			
COc1ccc2oc(C(=O)N3CC(CCl)c4ccc(N)cc43)cc2c1 (stereo not drawn)		4 µM	> 100 µM	1.1 µM		5.66 µM	0.72 µM	7.12 µM	1.24 µM	3.53 µM	
O=c1[nH]c(=O)n([C@@H]2O[C@H](CO)[C@@H](O)[C@@H]2F)cc1I	> 100 µM	> 100 µM	> 100 µM	> 100 µM	> 100 µM	> 100 µM		> 100 µM	> 100 µM	> 100 µM	
COc1cc(S(=O)(=O)Nc2ccc(-c3csc(N4C(=O)C(Cl)C4c4cccs4)n3)cc2)ccc1Cl (stereo not drawn)	> 100 µM	> 100 µM	> 100 µM	> 100 µM	77.5 µM	> 100 µM	> 100 µM		> 100 µM	> 100 µM	
C=CCn1c(-c2ccc(Cl)cc2)csc1=Nc1ccccc1OC	> 100 µM		> 100 µM	> 100 µM	> 100 µM	> 100 µM	> 100 µM	> 100 µM	> 100 µM	> 100 µM	
Cc1cc(C)nc(NS(=O)(=O)c2ccc(NC(=O)c3cc([N+](=O)[O-])cc([N+](=O)[O-])c3)cc2)n1			> 100 µM	> 100 µM	> 100 µM	> 100 µM	> 100 µM	> 100 µM	> 100 µM	> 100 µM	
CNC(=S)/C(C#N)=C(\N)N1CCCC1	> 100 µM	> 100 µM	> 100 µM	> 100 µM		> 100 µM	> 100 µM	> 100 µM	> 100 µM	> 100 µM	
